Experimental data: PubChem BioAssay (NCI)
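96-well plates; 48 h exposure; 5 concentrations. Endpoints by linear interpolation between flanking doses. Not reached: highest tested concentration assigned. At the TGI there is no net growth.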

Key:
Assay in all cases: NCI anticancer screen, dose series, 48 h
[1] = tested on: LOX IMVI melanoma
[2] = tested on: SK-OV-3 ovarian
[3] = tested on: PC-3 prostate
[4] = tested on: CAKI-1 renal
[5] = tested on: 786-0 renal
[6] = tested on: MOLT-4 leukemia
[7] = tested on: K-562 leukemia
[8] = tested on: SK-MEL-28 melanoma
[9] = tested on: A549 NSCLC
[10] = tested on: IGROV1 ovarian
[11] = tested on: HL-60(TB) leukemia
[12] = tested on: MDA-N
[13] = tested on: HCT-116 colon
[14] = tested on: BT-549 breast
[15] = tested on: SF-295 CNS
[16] = tested on: OVCAR-3 ovarian
[17] = tested on: SK-MEL-2 melanoma
[18] = tested on: OVCAR-8 ovarian
[19] = tested on: SW-620 colon
[20] = tested on: EKVX NSCLC
[21] = tested on: HOP-62 NSCLC
[22] = tested on: DU-145 prostate
[23] = tested on: UO-31 renal
[24] = tested on: SF-539 CNS
[25] = tested on: RPMI-8226 leukemia
[26] = tested on: SF-268 CNS
[27] = tested on: KM12 colon
[28] = tested on: SNB-19 CNS
[29] = tested on: NCI-H460 lung
[30] = tested on: UACC-62 melanoma
[31] = tested on: MALME-3M melanoma
[32] = tested on: HCT-15 colon
[33] = tested on: CCRF-CEM leukemia
[34] = tested on: MDA-MB-435
[35] = tested on: HOP-92 NSCLC
[36] = tested on: NCI-H226 lung
[37] = tested on: MDA-MB-231 breast
[38] = tested on: MCF7 breast
[39] = tested on: A498 renal
[40] = tested on: TK-10 renal
[41] = tested on: HS 578T breast
[42] = tested on: NCI/ADR-RES ovarian
[43] = tested on: M14 melanoma
[44] = tested on: SK-MEL-5 melanoma
[45] = tested on: HT29 colon
[46] = tested on: SN12C renal
[47] = tested on: ACHN renal
[48] = tested on: SNB-75 CNS
[49] = tested on: T-47D breast
[50] = tested on: UACC-257 melanoma
[51] = tested on: NCI-H23 lung
[52] = tested on: COLO 205 colon
[53] = tested on: OVCAR-5 ovarian
[54] = tested on: RXF 393 renal
[55] = tested on: U251 CNS
[56] = tested on: OVCAR-4 ovarian
[57] = tested on: NCI-H522 lung
[58] = tested on: HCC-2998 colon
[59] = tested on: SR leukemia

NCC1OC(n2cnc3c(=O)[nH]c(N)nc32)C(O)C1O (stereo not drawn)
TGI [1]: > 100 µM
TGI [2]: > 100 µM
TGI [3]: > 100 µM
TGI [4]: > 100 µM
TGI [5]: > 100 µM
TGI [6]: > 100 µM
TGI [7]: > 100 µM
TGI [8]: > 100 µM
TGI [9]: > 100 µM
TGI [10]: > 100 µM
TGI [11]: > 100 µM
TGI [12]: > 100 µM
TGI [13]: > 100 µM
TGI [14]: > 100 µM
TGI [15]: > 100 µM
TGI [16]: > 100 µM
TGI [17]: > 100 µM
TGI [18]: > 100 µM
TGI [19]: > 100 µM
TGI [20]: > 100 µM
TGI [21]: > 100 µM
TGI [22]: > 100 µM
TGI [23]: > 100 µM
TGI [24]: > 100 µM
TGI [25]: > 63.8 µM
TGI [26]: > 100 µM
TGI [27]: > 100 µM
TGI [28]: > 100 µM
TGI [29]: > 100 µM
TGI [30]: > 100 µM
TGI [31]: > 100 µM
TGI [32]: > 100 µM
TGI [33]: > 100 µM
TGI [34]: > 100 µM
TGI [35]: > 100 µM
TGI [36]: > 100 µM
TGI [37]: > 100 µM
TGI [38]: > 100 µM
TGI [39]: > 100 µM
TGI [40]: > 100 µM
TGI [41]: > 100 µM
TGI [42]: > 100 µM
TGI [43]: > 100 µM
TGI [44]: > 100 µM
TGI [45]: > 100 µM
TGI [46]: > 100 µM
TGI [47]: > 100 µM
TGI [48]: > 100 µM
TGI [49]: > 100 µM
TGI [50]: > 100 µM
TGI [51]: > 100 µM
TGI [52]: > 100 µM
TGI [53]: > 100 µM
TGI [54]: > 100 µM
TGI [55]: > 100 µM
TGI [56]: > 100 µM
TGI [57]: > 100 µM

COc1ccc2c(c1)CCCN1CCc3cc(OC)c(OC)cc3C21 (stereo not drawn)
TGI [1]: > 100 µM
TGI [2]: > 100 µM
TGI [3]: > 100 µM
TGI [4]: > 100 µM
TGI [5]: > 100 µM
TGI [6]: > 100 µM
TGI [7]: > 100 µM
TGI [58]: > 100 µM
TGI [8]: > 100 µM
TGI [9]: > 100 µM
TGI [10]: > 100 µM
TGI [11]: > 100 µM
TGI [12]: > 100 µM
TGI [13]: > 100 µM
TGI [14]: 43.2 µM
TGI [15]: > 100 µM
TGI [16]: > 100 µM
TGI [59]: > 100 µM
TGI [18]: > 100 µM
TGI [19]: > 100 µM
TGI [20]: > 100 µM
TGI [21]: > 100 µM
TGI [22]: > 100 µM
TGI [23]: > 100 µM
TGI [24]: > 100 µM
TGI [25]: > 100 µM
TGI [26]: > 100 µM
TGI [27]: > 100 µM
TGI [28]: > 100 µM
TGI [30]: > 100 µM
TGI [31]: > 100 µM
TGI [32]: > 100 µM
TGI [33]: > 100 µM
TGI [34]: > 100 µM
TGI [36]: > 100 µM
TGI [37]: > 100 µM
TGI [38]: > 100 µM
TGI [40]: > 100 µM
TGI [42]: 56 µM
TGI [43]: > 100 µM
TGI [44]: > 100 µM
TGI [45]: > 100 µM
TGI [46]: > 100 µM
TGI [47]: > 100 µM
TGI [48]: > 100 µM
TGI [49]: > 100 µM
TGI [50]: > 100 µM
TGI [52]: > 100 µM
TGI [53]: > 100 µM
TGI [55]: > 100 µM

CC(NC(=O)C(N)CC(=O)O)NC(=O)N1CCOCC1 (stereo not drawn)
TGI [1]: > 100 µM
TGI [2]: > 100 µM
TGI [3]: > 100 µM
TGI [4]: > 100 µM
TGI [5]: > 100 µM
TGI [6]: > 100 µM
TGI [7]: > 100 µM
TGI [8]: > 100 µM
TGI [9]: > 100 µM
TGI [10]: > 100 µM
TGI [12]: > 100 µM
TGI [13]: > 100 µM
TGI [14]: > 100 µM
TGI [15]: > 100 µM
TGI [16]: > 100 µM
TGI [17]: > 100 µM
TGI [18]: > 100 µM
TGI [19]: > 100 µM
TGI [20]: > 100 µM
TGI [21]: > 100 µM
TGI [22]: > 100 µM
TGI [23]: > 100 µM
TGI [24]: > 100 µM
TGI [25]: > 100 µM
TGI [26]: > 100 µM
TGI [27]: > 100 µM
TGI [28]: > 100 µM
TGI [29]: > 100 µM
TGI [30]: > 100 µM
TGI [31]: > 100 µM
TGI [32]: > 100 µM
TGI [33]: > 100 µM
TGI [34]: > 100 µM
TGI [36]: > 100 µM
TGI [37]: > 100 µM
TGI [38]: > 100 µM
TGI [39]: > 100 µM
TGI [40]: > 100 µM
TGI [41]: > 100 µM
TGI [42]: > 100 µM
TGI [43]: > 100 µM
TGI [44]: > 100 µM
TGI [45]: > 100 µM
TGI [46]: > 100 µM
TGI [47]: > 100 µM
TGI [48]: > 100 µM
TGI [50]: > 100 µM
TGI [51]: > 100 µM
TGI [52]: > 100 µM
TGI [53]: > 100 µM
TGI [54]: > 100 µM
TGI [55]: > 100 µM
TGI [56]: > 100 µM
TGI [57]: > 100 µM

CC(C)(C)OC(=O)Nc1cc(-c2ccccc2)co1
TGI [1]: > 100 µM
TGI [2]: > 100 µM
TGI [3]: > 100 µM
TGI [4]: > 100 µM
TGI [5]: > 100 µM
TGI [6]: > 100 µM
TGI [7]: > 100 µM
TGI [58]: > 100 µM
TGI [8]: > 100 µM
TGI [9]: > 100 µM
TGI [10]: > 100 µM
TGI [11]: > 100 µM
TGI [12]: > 100 µM
TGI [13]: > 100 µM
TGI [14]: > 100 µM
TGI [15]: > 100 µM
TGI [16]: > 100 µM
TGI [17]: > 100 µM
TGI [18]: > 100 µM
TGI [19]: > 100 µM
TGI [20]: > 100 µM
TGI [21]: > 100 µM
TGI [22]: > 100 µM
TGI [23]: > 100 µM
TGI [24]: > 100 µM
TGI [25]: > 100 µM
TGI [26]: 94.4 µM
TGI [27]: > 100 µM
TGI [28]: > 100 µM
TGI [30]: > 100 µM
TGI [32]: > 100 µM
TGI [33]: > 100 µM
TGI [34]: > 100 µM
TGI [35]: 86.8 µM
TGI [36]: > 100 µM
TGI [37]: > 100 µM
TGI [38]: > 100 µM
TGI [39]: > 100 µM
TGI [40]: > 100 µM
TGI [42]: > 100 µM
TGI [43]: > 100 µM
TGI [44]: > 100 µM
TGI [46]: > 100 µM
TGI [47]: > 100 µM
TGI [49]: > 100 µM
TGI [50]: > 100 µM
TGI [51]: > 100 µM
TGI [52]: > 100 µM
TGI [53]: > 100 µM
TGI [55]: > 100 µM
TGI [56]: > 100 µM
TGI [57]: 69.1 µM
